What follows are compounds tested against Transforming acidic coiled-coil-containing protein 3 (Homo sapiens) (UniProt Q9Y6A5) (assay: inhibition of ARNT PAS-B/TACC3 complex formation – biochemical, AlphaScreen, cherry-picked samples, confirmation (AID 651703;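 further: TACC3 partner is the GST-tagged E629A mutant dimer; hits lower the signal meaning they disrupt ARNT binding to TACC3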)). Conditions: AlphaScreen His-ARNT PAS-B / GST-TACC3 binding, luminescence.
O=C(CSc1ccc(-c2ccccn2)nn1)Nc1ccccc1 gave an AC50 of 1.96 µM. In the case of Cc1nnc(SCC(=O)Nc2nnc(-c3ccccc3)o2)s1, the AC50 is reported as 16.4 µM. Work on COc1ccc2ccccc2c1CNCc1ccccn1 yielded an AC50 of 24.8 µM. O=C(Nc1ccc(N2CCN(C(=O)c3ccccc3F)CC2)cc1)c1ncn[nH]1 gave an AC50 of 17.8 µM. With CCN(CC)c1ccc(/C=N/N=C(N)N)c(O)c1 the AC50 was 38.9 µM. Compound O=C(Nc1nnc(-c2ccncc2)o1)c1ccccc1 has an AC50 of 18.8 µM. For O=S(=O)(N[C@H]1CC[C@@H](CCn2cc(-c3ccccn3)nn2)O[C@H]1CO)c1cccc(F)c1, the AC50 was 19.1 µM. With CCOc1cc2c(C#N)c(N3CCOCC3)nc(N)c2c(N)n1 the AC50 was 30.4 µM. Work on CCOc1ncccc1C(=O)OCC(=O)Nc1nnc(-c2ccccc2)o1 yielded an AC50 of 21.6 µM. NNc1ccc(S(=O)(=O)N2CCCCC2)cn1 was tested, and the AC50 was 9.17 µM. COc1cc(NS(=O)(=O)c2ccc(Nc3nc(-c4ccccn4)cs3)cc2)nc(OC)n1 was tested, and the AC50 was 17.3 µM. Compound COc1c(O)cccc1/C=N/NC(=O)Cn1ccnc1C has an AC50 of 8.02 µM. Compound Cc1cccc(CSc2cccc3cccnc23)c1 has an AC50 of 1.79 µM. In the case of CO[C@@H]1CN(C)C(=O)c2ccc(NC(=O)c3ccccn3)cc2OC[C@@H](C)N(C(=O)C2CC2)C[C@H]1C, the AC50 is reported as 13.1 µM. CS(=O)(=O)c1ccccc1-c1nnc(NC(=O)c2ccc3ncsc3c2)o1 gave an AC50 of 25.4 µM. With COc1ccc(NC(=O)N[C@@H]2CC[C@H](CCn3cc(-c4ccccn4)nn3)O[C@@H]2CO)cc1 the AC50 was 21.5 µM. In the case of COc1cc2c(c(OC)c1OC)-c1ccc(O)c(=O)cc1[C@@H](N)CC2, the AC50 is reported as 29.7 µM. For Cc1c(NC(=O)CSc2cccc3cccnc23)c(=O)n(-c2ccccc2)n1C, the AC50 was 3.6 µM. Fc1ccc(-c2ccc(CNCc3ccccn3)o2)cc1Cl showed an AC50 of 17.5 µM. CC(C)(C)C(=O)Nc1ccccc1C(=O)NCCCn1ccnc1 gave an AC50 of 17.4 µM. O=C(CSC1=NNC(c2ccccn2)S1)Nc1ccccc1 (centres undefined) was tested, and the AC50 was 0.823 µM. O=C(N[C@H]1CC[C@H](CCn2cc(-c3ccccn3)nn2)O[C@@H]1CO)c1cccnc1 was tested, and the AC50 was 9.74 µM. For O=[N+]([O-])c1ccc(O)c(-c2nn[nH]n2)c1, the AC50 was 14 µM. COc1ccc(NC(=O)Nc2ccc3c(c2)CC(=O)N([C@@H](C)CO)C[C@@H](C)[C@H](CN(C)Cc2ccc(Oc4ccccc4)cc2)O3)cc1 was tested, and the AC50 was 23.2 µM. For COc1ccc(Cc2nnc(N/N=C/c3ccccc3O)[nH]c2=O)cc1OC, the AC50 was 1.42 µM. C#CCOCCOCCOCCNc1nc(N2CCN(C(=O)[C@H](CC(N)=O)n3cc([C@@H](N)CC(N)=O)nn3)CC2)nc(N2CCN(C(=O)[C@H](CC(N)=O)n3cc([C@@H](N)CC(N)=O)nn3)CC2)n1 showed an AC50 of 47.1 µM. Work on O=C(CSc1ccc2nnc(-c3ccccn3)n2n1)NCC1CCCO1 (centres undefined) yielded an AC50 of 49.7 µM. Compound CN1CCN(C2CCN(Cc3ccc(O)c4ncccc34)CC2)CC1 has an AC50 of 2.3 µM. In the case of N/C(=N\OS(=O)(=O)c1ccc(Cl)cc1)c1ccccn1, the AC50 is reported as 22.5 µM.

Reference: PubChem BioAssay AID651703 (Broad Institute, 2012)
